Assays:
[1] = test system: Human alphaherpesvirus 1; test: Effective dose required to inhibit cell growth against HSV-1 (schooler); type: functional; conditions: read-out: ED50 (the source's name)
[2] = test system: Human alphaherpesvirus 2; test: Effective dose required to inhibit cell growth against HSV-2 (186); type: functional; conditions: read-out: ED50 (the source's name)
[3] = test system: Human betaherpesvirus 5; test: Effective dose required to inhibit cell growth against HCMV (AD169); type: functional; conditions: read-out: ED50 (the source's name)
[4] = test system: Human alphaherpesvirus 3; test: Effective dose required to inhibit cell growth against VZV (Ellen); type: functional; conditions: read-out: ED50 (the source's name)
[5] = test system: Human alphaherpesvirus 3; test: Effective dose required to inhibit cell growth against VZV (Ellen); Value ranges from 25-63; type: functional; conditions: read-out: ED50 (the source's name)
[6] = test system: Human alphaherpesvirus 2; test: Effective dose required to inhibit cell growth against HSV-2 (186); Value ranges from 88-176; type: functional; conditions: read-out: ED50 (the source's name)
[7] = test system: Human alphaherpesvirus 3; test: Effective dose required to inhibit cell growth against VZV (Ellen); Value ranges from 88-177; type: functional; conditions: read-out: ED50 (the source's name)
[8] = test system: Human alphaherpesvirus 1; test: Effective dose required to inhibit cell growth against HSV-1 (schooler); Value ranges from 0.7-1.8; type: functional; conditions: read-out: ED50 (the source's name)
[9] = test system: Human betaherpesvirus 5; test: Effective dose required to inhibit cell growth against HCMV (AD169); Value ranges from 3.5-35; type: functional; conditions: read-out: ED50 (the source's name)
[10] = test system: Human alphaherpesvirus 3; test: Effective dose required to inhibit cell growth against VZV (Ellen); Value ranges from 1.8-3.5; type: functional; conditions: read-out: ED50 (the source's name)
[11] = test system: Human alphaherpesvirus 1; test: Effective dose required to inhibit cell growth against HSV-1 (schooler); Value ranges from 0.7-1.7; type: functional; conditions: read-out: ED50 (the source's name)
[12] = test system: Human alphaherpesvirus 2; test: Effective dose required to inhibit cell growth against HSV-2 (186); Value ranges from 0.3-0.7; type: functional; conditions: read-out: ED50 (the source's name)
[13] = test system: Human betaherpesvirus 5; test: Effective dose required to inhibit cell growth against HCMV (AD169); Value ranges from 18-35; type: functional; conditions: read-out: ED50 (the source's name)
[14] = test system: Human alphaherpesvirus 3; test: Effective dose required to inhibit cell growth against VZV (Ellen); Value ranges from 0.7-1.7; type: functional; conditions: read-out: ED50 (the source's name)
[15] = test system: Human betaherpesvirus 5; test: Effective dose required to inhibit cell growth against HCMV (AD169); Value ranges from 20-40; type: functional; conditions: read-out: ED50 (the source's name)
[16] = test system: Human alphaherpesvirus 1; test: microbe, parasite or virus in culture; conditions: Human alphaherpesvirus 1, read-out: ED50
[17] = test system: Human alphaherpesvirus 2; test: microbe, parasite or virus in culture; conditions: Human alphaherpesvirus 2, read-out: ED50
[18] = test system: Human alphaherpesvirus 3; test: microbe, parasite or virus in culture; conditions: Human alphaherpesvirus 3, read-out: ED50

Nc1ccn([C@@H]2C(F)C(CO)[C@@H]2CO)c(=O)n1 (stereo partly drawn)
EC50 [1]: > 411 µM | EC50 [2]: ≥ 411 µM | EC50 [3]: > 411 µM | EC50 [4]: > 411 µM

O=c1[nH]c(=O)n([C@@H]2C(F)[C@H](CO)C2CO)cc1/C=C/I (stereo partly drawn)
EC50 [1]: > 252 µM | EC50 [2]: > 252 µM | EC50 [3]: > 252 µM | EC50 [5]: 25 µM

Nc1nc(O)c2ncn([C@@H]3C(F)[C@H](CO)C3CO)c2n1 (stereo partly drawn)
EC50 [1]: 88 µM | EC50 [6]: 88 µM | EC50 [3]: > 353 µM | EC50 [7]: 88 µM

O=c1[nH]c(=O)n([C@@H]2C(F)[C@H](CO)C2CO)cc1/C=C/Br (stereo partly drawn)
EC50 [1]: > 286 µM | EC50 [2]: > 286 µM | EC50 [3]: > 286 µM | EC50 [4]: 286 µM

Nc1nc(O)c2ncn([C@@H]3C(F)[C@H](CO)C3CO)c2n1 (mixture of isomers)
EC50 [8]: 0.7 µM | EC50 [2]: 0.7 µM | EC50 [9]: 3.5 µM | EC50 [10]: 1.8 µM

Nc1nc(O)c2ncn([C@@H]3C(F)[C@H](CO)C3CO)c2n1 (single isomer, unassigned; (-))
EC50 [11]: 0.7 µM | EC50 [12]: 0.3 µM | EC50 [13]: 18 µM | EC50 [14]: 0.7 µM

Nc1nc2c(ncn2COCCO)c(=O)[nH]1 [ACYCLOVIR]
EC50 [15]: 20 µM | EC50 [16]: 0.2 µM | EC50 [17]: 0.4 µM | EC50 [18]: 2 µM
